Values after ≈ are worked out from the molar mass of the structure shown. Read-outs that look alike come from different tables or passages of the source. Where a SMILES comes first, the peptide text is derived from it.

One data set has as its system MRSA T144. Briefly: microbe, parasite or virus in culture. The class given is cell-based, Staphylococcus aureus. The settings on record: for MIC: micro-broth dilution, CLSI 2018, ~1.5 × 10^6 CFUs per mL, 37 °C, 16–18 h; for IC50: OD600 of micro-broth dilution plates, four-parameter fit. As for the experimental part:
(§1) The MICs of all drugs were determined by micro-broth dilution method according to CLSI 2018 guidelines. The bacterial suspension used in the experiment was appropriate 1.5 × 10^6 colony-forming units (CFUs) per mL and mixed with the drug solution in a sterilized 96-well microtiter plate (Corning, New York, USA), then incubated at 37 °C for 16–18 h. MIC value was defined as the minimum drug concentration without visible bacteria. Meanwhile, the density of the bacteria at 600 nm was measured, and the corresponding IC50 was calculated using log (inhibitor) vs. response variable slope (four parameters) in Graphpad Prism version 8.3.0 software (San Diego, CA, USA). To assess the role of ROS production in the antibacterial activity of WW307, increasing concentrations of N-acetylcysteine (NAC) from 0 to 5 mM were added in culture medium, followed by MICs test.

For another data set, the system named is S. aureus G16 (RIF^R). Briefly: microbe, parasite or virus in culture. The class given is cell-based, Staphylococcus aureus. The following applies: for IC50: OD600 of micro-broth dilution plates, four-parameter fit. As to the method:
as §1

For another data set, the system named is E. coli 1F28 (tet(X4)). Put plainly: microbe, parasite or virus in culture. The class given is cell-based, Escherichia coli. The settings on record: for MIC: micro-broth dilution, CLSI 2018, ~1.5 × 10^6 CFUs per mL, 37 °C, 16–18 h; for IC50: OD600 of micro-broth dilution plates, four-parameter fit. As to the method: as §1
Data set [1] relates to E. coli B2 (mcr-1 + blaNDM-5). Put plainly: microbe, parasite or virus in culture. Type of data set: cell-based, Escherichia coli. The settings on record: for IC50: OD600 of micro-broth dilution plates, four-parameter fit. As to the method: as §1
The next data set has as its system E. coli G92 (mcr-1). Briefly: microbe, parasite or virus in culture. Type of data set: cell-based, Escherichia coli. The settings on record: for IC50: OD600 of micro-broth dilution plates, four-parameter fit. As to the method: as §1
The next data set has as its system E. coli C3 (blaNDM-1). Put plainly: MIC / IC50, micro-broth dilution. Type of data set: cell-based, Escherichia coli. The following applies: for MIC: micro-broth dilution, CLSI 2018, ~1.5 × 10^6 CFUs per mL, 37 °C, 16–18 h; for IC50: OD600 of micro-broth dilution plates, four-parameter fit. As for the experimental part:
as §1

Another data set relates to E. coli CP131 (mcr-3). Put plainly: MIC / IC50, micro-broth dilution. The class given is cell-based, Escherichia coli. The following applies: for IC50: OD600 of micro-broth dilution plates, four-parameter fit. As for the experimental part:
as §1

A further data set relates to E. coli G6 (blaNDM-5). Briefly: MIC / IC50, micro-broth dilution. The class given is cell-based, Escherichia coli. The settings on record: for MIC: micro-broth dilution, CLSI 2018, ~1.5 × 10^6 CFUs per mL, 37 °C, 16–18 h; for IC50: OD600 of micro-broth dilution plates, four-parameter fit. As for the experimental part: as §1
Data set [2] deals with A. baumannii C222 (tet(X6)). Briefly: microbe, parasite or virus in culture. The settings on record: for IC50: OD600 of micro-broth dilution plates, four-parameter fit. The class given is cell-based, Acinetobacter baumannii. As to the method: as §1
Data set [3] concerns P. cibarius HNCF44W (blaNDM-1 + tet(X6)). Put plainly: MIC / IC50, micro-broth dilution. Type of data set: cell-based. The settings on record: for MIC: micro-broth dilution, CLSI 2018, ~1.5 × 10^6 CFUs per mL, 37 °C, 16–18 h; for IC50: OD600 of micro-broth dilution plates, four-parameter fit. As to the method:
as §1

For another data set, the system named is Sheep RBCs. Put plainly: Hemolysis analysis. Type of data set: cell-based. The settings on record: 8% sheep red blood cell suspension, 37 °C, 1 h, released hemoglobin at 576 nm; PBS negative, ddH2O positive control. As to the method:
The hemolytic activity on all peptides was evaluated based on previous report. Briefly, fresh Sheep RBCs were washed twice with phosphate buffer (PBS), and then 8% red blood cell suspension was prepared. The increasing concentrations of AMPs and melittin were mixed with 8% red blood cell suspension, respectively, and incubated at 37 °C for 1 h. The sterilized PBS and double-distilled water (ddH2O) were used as blank and positive control, respectively. Afterwards, the supernatant was centrifuged to measure the absorption of released hemoglobin at 576 nm by an Infinite M200 Microplate reader (Tecan, Männedorf, Switzerland). The corresponding hemolysis rate was calculated.

[4] abbreviates: Staphylococcus aureus, read-out: MIC.
Where [5] appears, read: Escherichia coli, read-out: MIC.
[6] abbreviates: S. aureus G16 (RIF^R), micro-broth dilution, CLSI 2018, ~1.5 × 10^6 CFUs per mL, 37 °C, 16–18 h.
[7] abbreviates: E. coli B2 (mcr-1 + blaNDM-5), micro-broth dilution, CLSI 2018, ~1.5 × 10^6 CFUs per mL, 37 °C, 16–18 h.
Setting [8] is: E. coli G92 (mcr-1), micro-broth dilution, CLSI 2018, ~1.5 × 10^6 CFUs per mL, 37 °C, 16–18 h.
The mark [9] stands for this setting: E. coli CP131 (mcr-3), micro-broth dilution, CLSI 2018, ~1.5 × 10^6 CFUs per mL, 37 °C, 16–18 h.
[10] abbreviates: A. baumannii C222 (tet(X6)), micro-broth dilution, CLSI 2018, ~1.5 × 10^6 CFUs per mL, 37 °C, 16–18 h.

For `C[C@@H](O)[C@H]1C(=O)N2C(C(=O)O)=C(S[C@@H]3CN[C@H](C(=O)N(C)C)C3)[C@H](C)[C@H]12` [MEM, meropenem], the MIC with MRSA T144 (setting [4]) was 1 µg/mL (≈ 2.61 µM); against S. aureus G16 (RIF^R) (Staphylococcus aureus), 2 µg/mL (≈ 5.22 µM); in the data set on E. coli 1F28 (tet(X4)) (setting [5]), 0.25 µg/mL (≈ 0.652 µM); in data set [1] (Escherichia coli), 32 µg/mL (≈ 83.4 µM); in the data set on E. coli G92 (mcr-1) (Escherichia coli) it was below 0.125 µg/mL; with E. coli C3 (blaNDM-1) (setting [5]) it was 8 µg/mL (≈ 20.9 µM). The MIC against E. coli CP131 (mcr-3) (Escherichia coli) is below 0.125 µg/mL; with E. coli G6 (blaNDM-5) (setting [5]) it was 64 µg/mL (≈ 167 µM); in data set [2] (Acinetobacter baumannii), below 0.125 µg/mL; in data set [3] (read-out: MIC) it was above 16 µg/mL.
On to `CC[C@H](C)[C@H](NC(=O)CN)C(=O)NCC(=O)N[C@@H](C)C(=O)N[C@H](C(=O)N[C@@H](CC(C)C)C(=O)N[C@@H](CCCCN)C(=O)N[C@H](C(=O)N[C@@H](CC(C)C)C(=O)N[C@H](C(=O)N[C@H](C(=O)NCC(=O)N[C@@H](CC(C)C)C(=O)N1CCC[C@H]1C(=O)N[C@@H](C)C(=O)N[C@@H](CC(C)C)C(=O)N[C@H](C(=O)N[C@@H](CO)C(=O)N[C@@H](Cc1c[nH]c2ccccc12)C(=O)N[C@H](C(=O)N[C@@H](CCCCN)C(=O)N[C@@H](CCCNC(=N)N)C(=O)N[C@@H](CCCCN)C(=O)N[C@@H](CCCNC(=N)N)C(=O)N[C@@H](CCC(N)=O)C(=O)N[C@@H](CCC(N)=O)C(N)=O)[C@@H](C)CC)[C@@H](C)CC)[C@@H](C)O)[C@@H](C)O)C(C)C)C(C)C` [Melittin, melittin], for which the IC50 was determined as 3.54 µg/mL (≈ 1.24 µM) in the data set with MRSA T144; 1.19 µg/mL (≈ 0.418 µM) in the data set with S. aureus G16 (RIF^R) (S. aureus G16 (RIF^R)); 2.62 µg/mL (≈ 0.92 µM) with E. coli 1F28 (tet(X4)); 4.36 µg/mL in data set [1] (E. coli B2 (mcr-1 + blaNDM-5)); 3.55 µg/mL (≈ 1.25 µM) in the data set with E. coli G92 (mcr-1) (E. coli G92 (mcr-1)); 5.03 µg/mL (≈ 1.77 µM) with E. coli C3 (blaNDM-1). Besides, the IC50 stood at 3.39 µg/mL (≈ 1.19 µM) in the data set with E. coli CP131 (mcr-3) (E. coli CP131 (mcr-3)), 2.38 µg/mL (≈ 0.836 µM) in the data set with E. coli G6 (blaNDM-5), 4.16 µg/mL (≈ 1.46 µM) in data set [2] (A. baumannii C222 (tet(X6))) and 2.39 µg/mL (≈ 0.84 µM) in data set [3]. In addition, the MIC with MRSA T144 was 4 µg/mL (≈ 1.41 µM); in the data set on S. aureus G16 (RIF^R) (setting [6]), 2 µg/mL (≈ 0.703 µM); in the data set on E. coli 1F28 (tet(X4)), 4 µg/mL (≈ 1.41 µM); in data set [1] (setting [7]), 8 µg/mL; in the data set on E. coli G92 (mcr-1) (setting [8]), 4 µg/mL (≈ 1.41 µM); in the data set on E. coli C3 (blaNDM-1), 8 µg/mL (≈ 2.81 µM). The MIC in the data set on E. coli CP131 (mcr-3) (setting [9]) came to 4 µg/mL (≈ 1.41 µM); against E. coli G6 (blaNDM-5), 4 µg/mL (≈ 1.41 µM); in data set [2] (setting [10]) it was 8 µg/mL (≈ 2.81 µM); in data set [3], 4 µg/mL (≈ 1.41 µM). Also, the “HL50 (peptide concentration that causes 50% hemolysis)” value in the data set with Sheep RBCs turned out to be 14.39 µg/mL.
In the case of `CN(C)c1cc(NC(=O)CNC(C)(C)C)c(O)c2c1C[C@H]1C[C@H]3[C@H](N(C)C)C(O)=C(C(N)=O)C(=O)[C@@]3(O)C(O)=C1C2=O` [TIG, tigecycline], the MIC was 0.25 µg/mL (≈ 0.427 µM) with MRSA T144 (setting [4]); below 0.0625 µg/mL against S. aureus G16 (RIF^R) (Staphylococcus aureus); 16 µg/mL (≈ 27.3 µM) in the data set on E. coli 1F28 (tet(X4)) (setting [5]); 4 µg/mL (≈ 6.83 µM) in the data set with E. coli G92 (mcr-1) (Escherichia coli); 2 µg/mL (≈ 3.41 µM) with E. coli C3 (blaNDM-1) (setting [5]); 2 µg/mL (≈ 3.41 µM) in the data set on E. coli CP131 (mcr-3) (Escherichia coli, E. coli CP131 (mcr-3), micro-broth dilution, CLSI 2018, ~1.5 × 10^6 CFUs per mL, 37 °C, 16–18 h, read-out: MIC). The MIC in the data set on E. coli G6 (blaNDM-5) (setting [5]) was 2 µg/mL (≈ 3.41 µM); in data set [2] (Acinetobacter baumannii), 64 µg/mL (≈ 109 µM); in data set [3] (read-out: MIC), 64 µg/mL (≈ 109 µM).
Consider `CC(C)C[C@H](NC(=O)[C@H](Cc1c[nH]c2ccccc12)NC(=O)[C@H](Cc1c[nH]c2ccccc12)NC(=O)[C@@H](N)Cc1c[nH]c2ccccc12)C(=O)N[C@@H](CCCNC(=N)N)C(=O)N[C@@H](CCCNC(=N)N)C(=O)N[C@@H](CCCNC(=N)N)C(=O)N[C@@H](Cc1c[nH]c2ccccc12)C(N)=O` [WW304] (H-WWWLRRRW-NH2), for which the IC50 in the data set on MRSA T144 was determined as 4.59 µg/mL (≈ 3.42 µM); in the data set on S. aureus G16 (RIF^R) (S. aureus G16 (RIF^R)), 2.11 µg/mL (≈ 1.57 µM); in the data set on E. coli 1F28 (tet(X4)) it was 18.13 µg/mL (≈ 13.5 µM); in data set [1] (E. coli B2 (mcr-1 + blaNDM-5)) it was 36.12 µg/mL; in the data set on E. coli G92 (mcr-1) (E. coli G92 (mcr-1)), 31.96 µg/mL (≈ 23.8 µM); in the data set on E. coli C3 (blaNDM-1), 34.76 µg/mL (≈ 25.9 µM). In addition, the IC50 was determined as 18.26 µg/mL (≈ 13.6 µM) in the data set on E. coli CP131 (mcr-3) (E. coli CP131 (mcr-3)), 36.04 µg/mL (≈ 26.8 µM) in the data set with E. coli G6 (blaNDM-5), 34.74 µg/mL (≈ 25.9 µM) in [2] (A. baumannii C222 (tet(X6))) and 33.60 µg/mL (≈ 25 µM) in [3]. For the same compound, the MIC with MRSA T144 stood at 8 µg/mL (≈ 5.95 µM); in the data set on S. aureus G16 (RIF^R) (setting [6]) it was 8 µg/mL (≈ 5.95 µM); in the data set with E. coli 1F28 (tet(X4)), 32 µg/mL (≈ 23.8 µM); in data set [1] (setting [7]) it was 64 µg/mL; against E. coli G92 (mcr-1) (setting [8]) it was 64 µg/mL (≈ 47.6 µM); against E. coli C3 (blaNDM-1), 64 µg/mL (≈ 47.6 µM). Besides, the MIC amounted to 32 µg/mL (≈ 23.8 µM) against E. coli CP131 (mcr-3) (setting [9]), 64 µg/mL (≈ 47.6 µM) against E. coli G6 (blaNDM-5), 64 µg/mL (≈ 47.6 µM) in data set [2] (setting [10]) and 64 µg/mL (≈ 47.6 µM) in [3]. Also, in the data set with Sheep RBCs, the “HL50 (peptide concentration that causes 50% hemolysis)” value is recorded as above 128 µg/mL.
colistin: the MIC against MRSA T144 was 16 µg/mL; in the data set on S. aureus G16 (RIF^R) (setting [6]), 1 µg/mL; against E. coli 1F28 (tet(X4)), 0.125 µg/mL; in data set [1] (setting [7]), 8 µg/mL; with E. coli G92 (mcr-1) (setting [8]), 4 µg/mL; in the data set on E. coli C3 (blaNDM-1), below 0.125 µg/mL. Further, the MIC in the data set on E. coli CP131 (mcr-3) (setting [9]) was 4 µg/mL; in the data set with E. coli G6 (blaNDM-5) it was 0.5 µg/mL; in data set [2] (setting [10]), below 0.125 µg/mL; in [3] it was above 256 µg/mL.
